Values of other authors in PMC6888386, “Identification of Novel 1,3,5-Triphenylbenzene Derivative Compounds as Inhibitors of Hen Lysozyme Amyloid Fibril Formation” (International Journal of Molecular Sciences, 2019).

Tested on: HEWL
Design: method as in PMID 27597412
Conditions: HEWL amyloid fibril formation; read-out: IC50 value of a representative bis(indolyl)phenylmethane; cited from earlier work

bis(indolyl)phenylmethane
IC50: 12.3 ± 1 µM
